Reference: patent publication US20240398814A1, “KRAS INHIBITOR AND HDAC INHIBITOR COMBINATION FOR THE TREATMENT OF CANCER” (Northwestern University, priority 2023, published 2024)

What was measured:
KL LJE1 cells [1] = assay: Western blot and qRT-PCR of FGFR1, NKX2-1 and ERK phosphorylation in drug-treated KL LJE1 cells; assay type: cell-based, mouse; conditions: 13 days
Protocol: (§1) All cell lines were incubated at 37° C. and were maintained in an atmosphere containing 5% CO2. Cells were tested for Mycoplasma (Lonza) using manufacturer's conditions and were deemed negative. Cells were grown in Dulbecco's modified Eagles medium (DMEM) plus 10% fetal bovine serum (Gibco) and were continuously maintained under antibiotic selection for stable cell lines. Proliferation assays were performed by plating 2×10^3 cells per well of a 6-well plate, and cells were counted 5 days post-plating. Drug treatments were carried out using the following doses: entinostat 1 uM or 2 uM, RGFP966 10uM, TSA 0.5 uM, BRD3308 5 uM, trametinib 5 nM, 10 nM, and 25 nM, and MRTX1133 10 nM, 25 nM, and 50 nM, as indicated for the indicated treatment lengths. Media was changed and fresh drug added every 2 days.
(§2) mRNA was prepared using the Quick-RNA Miniprep kit (Zymo Research), including DNase treatment. cDNA was synthesized from 2 μg of RNA using SuperScript III (Life Technologies), and qPCR was carried out with diluted cDNA, appropriate primers, and SYBR Green PCR master mix (ThermoFisher Scientific) using a C1000 Thermal Cycler (BioRad). Relative mRNA levels were calculated using the delta Ct method, using Tbp as an internal control.
Protein lysates in CST buffer (20 mM Tris pH 7.5, 150 mM NaCl, 1% Triton X-100, 50 mM NaF, 1 mM EDTA, 1 mM EGTA, 2.5 mM PyroPhosphate, 2 mM beta-glycerol-phosphate, 1 mM orthovanadate, 0.01 mM Calyculan A) with protease inhibitors were equilibrated for protein levels using a BCA protein assay kit (Pierce), resolved on 8% SDS-PAGE gels, and transferred to membrane. Membranes were blocked in milk, incubated o/n at 4C in diluted primary antibody, washed with TBS-T, incubated 1 hr in secondary antibody diluted in TBS-T plus milk, washed in TBS-T, and developed using SuperSignal ECL. Secondary antibodies: anti-rabbit (Millipore AP132P) and anti-mouse (Millipore AP124P). Nuclear fractions were isolated using a NE-PER nuclear and cytoplasmic extraction kit (Thermofisher) under manufacturers conditions.

A549 cells = assay: qRT-PCR of chemokine gene expression in A549 cells; assay type: cell-based, human; conditions: 2 uM entinostat 3 days, 5 uM BRD3308 4 days
Protocol: as §1, §2

KL LJE1 cells [2] = assay: qRT-PCR of chemokine (HRCG) gene expression in KL LJE1 cells; assay type: cell-based, mouse
Protocol: as §1, §2

KL NSCLC GEMM = assay: In vivo entinostat and trametinib treatment, 42 days, tumor burden; set-up: species or system mouse; conditions: endpoint after 42 days; entinostat 10 mg/kg, trametinib 1 mg/kg, oral gavage
Protocol: Bioluminescent imaging was performed biweekly using an IVIS Spectrum (Caliper Life Sciences) using Living Image software (Perkin Elmer). Mice were injected intraperitoneally with 150 mg/kg D-luciferin (Caliper Life Sciences), anesthetized with isoflurane and imaged both ventrally and dorsally 10 minutes post luciferin injection. The total lung photon flux for each animal is calculated by the combination of ventral and dorsal photon flux calculated within a region of interest (ROI) encompassing the thorax.
Mice were intratracheally intubated with Lentivirus expressing Cre recombinase to initiate tumorigenesis and imaged […] starting 4 weeks post-Cre. Treatment was initiated at day 34 post-Cre (FIG. 5). In vivo treatment doses were selected based on publications (76-79). […]
Total lung tumor burden was quantitated from H&E sections using Inform v2.1 image analysis software (Cambridge Research and Instrumentation) in a non-biased manner. […] The quantitation data from this analysis was then used to calculate the percentage of tumor area as normalized to total lung area (tumor area+normal lung area).
Quantitation of each individual tumor was measured from H&E sections using morphometric analysis in Panoramic viewer software (Perkin Elmer), which calculates the size of each identified tumor by area in squared microns. […]

Question: With `Nc1ccccc1NC(=O)c1ccc(CNC(=O)OCc2cccnc2)cc1` [entinostat] as the compound, how does the FGFR1 protein (KL LJE1 cells [1]; Western blot, 10 nM trametinib, 1 uM entinostat) read?
Answer: neither FGFR1 protein or mRNA levels were impacted

Question: And the “FGFR1 mRNA levels” value (KL LJE1 cells [1]; qRT-PCR, 1 uM entinostat alone)?
Answer: neither FGFR1 protein or mRNA levels were impacted

Question: And the “chemokine (SASP) gene expression” value (A549 cells)?
Answer: induced the expression of these genes

Question: What about the “HRCG gene expression response in cells expressing p65 WT or p65 K310A” value (KL LJE1 cells [2]; 3 days, 1 uM entinostat) of the same compound?
Answer: K310 only significantly altered the gene expression response of Cc120, Cxc15, and Cc15

Question: And the “gene expression induction in NT versus p65 KO cells” value (KL LJE1 cells [2]; 3 days, 1 uM entinostat or 5 uM BRD3308)?
Answer: p65 facilitates maximal gene expression induction

Question: And the “chemokine (SASP) gene expression” value (KL LJE1 cells [2]; 72 hr, 2 uM entinostat or 10uM RGFP966)?
Answer: robust induction of gene expression

Question: And the “tumor burden quantitated from H&E-stained sections (tumor area as percentage of total lung area)” value (KL NSCLC GEMM)?
Answer: neither entinostat nor trametinib alone impacted tumor burden
